Experimental data as given in PubChem BioAssay (NCI).
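Tested at 5 concentrations; 48 h exposure; 96-well plates; endpoints linearly interpolated, else capped at highest concentration. TGI is the concentration that stops growth completely.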

Key:
Assay in all cases: growth of human tumour cells (NCI), 48 h
[1] = test system: 786-0 renal
[2] = test system: A498 renal
[3] = test system: A549 NSCLC
[4] = test system: ACHN renal
[5] = test system: CAKI-1 renal
[6] = test system: CCRF-CEM leukemia
[7] = test system: COLO 205 colon
[8] = test system: DU-145 prostate
[9] = test system: EKVX NSCLC
[10] = test system: HCC-2998 colon
[11] = test system: HCT-116 colon
[12] = test system: HCT-15 colon
[13] = test system: HL-60(TB) leukemia
[14] = test system: HOP-62 NSCLC
[15] = test system: HOP-92 NSCLC
[16] = test system: HS 578T breast
[17] = test system: HT29 colon
[18] = test system: IGROV1 ovarian
[19] = test system: K-562 leukemia
[20] = test system: KM12 colon
[21] = test system: LOX IMVI melanoma
[22] = test system: M14 melanoma
[23] = test system: MALME-3M melanoma
[24] = test system: MCF7 breast
[25] = test system: MDA-MB-231 breast
[26] = test system: MDA-MB-435
[27] = test system: MDA-N
[28] = test system: MOLT-4 leukemia
[29] = test system: NCI-H226 lung
[30] = test system: NCI-H23 lung
[31] = test system: NCI-H460 lung
[32] = test system: NCI-H522 lung
[33] = test system: NCI/ADR-RES ovarian
[34] = test system: OVCAR-3 ovarian
[35] = test system: OVCAR-4 ovarian
[36] = test system: OVCAR-8 ovarian
[37] = test system: PC-3 prostate
[38] = test system: RPMI-8226 leukemia
[39] = test system: RXF 393 renal
[40] = test system: SF-268 CNS
[41] = test system: SF-295 CNS
[42] = test system: SF-539 CNS
[43] = test system: SK-MEL-2 melanoma
[44] = test system: SK-MEL-28 melanoma
[45] = test system: SK-MEL-5 melanoma
[46] = test system: SK-OV-3 ovarian
[47] = test system: SN12C renal
[48] = test system: SNB-19 CNS
[49] = test system: SNB-75 CNS
[50] = test system: SR leukemia
[51] = test system: SW-620 colon
[52] = test system: T-47D breast
[53] = test system: TK-10 renal
[54] = test system: U251 CNS
[55] = test system: UACC-257 melanoma
[56] = test system: UACC-62 melanoma
[57] = test system: UO-31 renal
[58] = test system: BT-549 breast
[59] = test system: OVCAR-5 ovarian

Measured: TGI

C/C(CC(O)(C(F)(F)F)C(F)(F)F)=N\NC(N)=O
> 10 µM: [1] | [2] | [3] | [4] | [5] | [6] | [7] | [8] | [9] | [10] | [11] | [12] | [13] | [14] | [15] | [16] | [17] | [18] | [19] | [20] | [21] | [22] | [23] | [24] | [25] | [26] | [27] | [28] | [29] | [30] | [31] | [32] | [33] | [34] | [35] | [36] | [37] | [38] | [39] | [40] | [41] | [42] | [43] | [44] | [45] | [46] | [47] | [48] | [49] | [50] | [51] | [52] | [53] | [54] | [55] | [56] | [57]

NC(=O)Nc1c(Cl)cc(S(N)(=O)=O)cc1Cl
> 100 µM: [1] | [3] | [58] | [5] | [6] | [7] | [8] | [9] | [11] | [12] | [13] | [14] | [15] | [16] | [17] | [18] | [19] | [20] | [21] | [22] | [23] | [24] | [25] | [26] | [27] | [28] | [29] | [30] | [32] | [33] | [34] | [35] | [59] | [36] | [38] | [39] | [40] | [41] | [42] | [43] | [44] | [45] | [46] | [47] | [48] | [49] | [51] | [53] | [54] | [55] | [56] | [57]
